US20230172929A1, “NOVEL PERIPHERAL CANNABINOID-1 RECEPTOR ANTAGONISTS” (Yissum Research Development Company of the Hebrew …, priority 2019, published 2023)
“Also recorded” adds a separate entry of the source. Read-outs that look alike come from different tables or passages of the source.

Key:
[1] = system: mice; assay: Locomotor activity, CB1R-mediated hyperactivity; assay type: in vivo; details: 10 mg/kg ip
Description: Locomotor Activity: Locomotor activity was quantified by the number of disruptions of infrared XYZ beam arrays with a beam spacing of 0.25 cm in the Promethion High-Definition Behavioral Phenotyping System (Sable Instruments, Inc., Las Vegas, Nev., USA).
We next tested whether the reduced brain penetrance of Compound 8/Compound 4 is associated with an attenuation of behavioral effects.

[2] = Tissue levels of antagonists (brain, serum) by LC-MS/MS; assay type: in vivo, mice; details: 1 hour after single dose
Experimental: Blood was collected, and the mice were perfused with phosphate buffered saline for 1 min to remove drug from the intravascular space before removing the brain and liver. Drug levels in tissue homogenates and plasma were determined by using LC-MS/MS.

[3] = target: T1, CB1R (Mus musculus, UniProt P47746); assay: Radioligand binding assay, competition displacement of [3H]CP-55,940, CB1R
T1 construct: crude membranes from mouse brain for CB1R; from tissue; host or cells: mouse brain, crude membranes
Experimental: Radioligand binding assays: Binding to CB1R and CB2R was assessed in competition displacement assays using [3^H]CP-55,940 as the radioligand and crude membranes from mouse brain for CB1R or human cell membrane for CB2R, as reported previously. All data were in triplicates with Ki values determined from three independent experiments.
CB1R binding: The actual affinity of the 14 candidates was tested in a CB1R competitive binding assay.

[4] = target: T1, CB1R; assay: [35S]GTPγS binding, with and without CB1R agonist HU-210; assay type: biochemical; details: mouse brain membranes, compounds at 10 μM, with and without HU-210 (100 nM)
Experimental: [^35S]GTPγS binding: Mouse brains (CB1R) or human cell membranes (CB2R) were dissected and P2 membranes prepared and resuspended at ˜2 μg protein/μL in 1 mL assay buffer (50 mM Tris HCl, 9 mM MgCl2, 0.2 mM EGTA, 150 mM NaCl; pH 7.4). Ligand-stimulated [^35S]GTPγS binding was assayed as described previously. Briefly, membranes (10 μg protein) were incubated in assay buffer containing 100 μM GDP, 0.05 nM [^35S]GTPγS, test compounds (HU-210, CP55,940 and tested molecules) at 10 μM, and 1.4 mg/mL fatty acid-free BSA in siliconized glass tubes. Bound ligand was separated from free ligand by vacuum filtration. Non-specific binding was determined using 10 μM GTPS. Basal binding was assayed in the absence of the ligand and in the presence of GDP.
The test was performed for each compound with and without the CB1R agonist HU-210 (100 nM).

[5] = CB1R competitive binding, mouse brain membranes, [3H]CP-55,940, read-out: Ki
[6] = Mix (not separated), read-out: Ki (μM) Mix
[7] = separated isomer R, read-out: Ki (μM) R
[8] = CB1R competitive binding, values in text, read-out: CB1R Ki

T1 sequence (P47746 whole entry): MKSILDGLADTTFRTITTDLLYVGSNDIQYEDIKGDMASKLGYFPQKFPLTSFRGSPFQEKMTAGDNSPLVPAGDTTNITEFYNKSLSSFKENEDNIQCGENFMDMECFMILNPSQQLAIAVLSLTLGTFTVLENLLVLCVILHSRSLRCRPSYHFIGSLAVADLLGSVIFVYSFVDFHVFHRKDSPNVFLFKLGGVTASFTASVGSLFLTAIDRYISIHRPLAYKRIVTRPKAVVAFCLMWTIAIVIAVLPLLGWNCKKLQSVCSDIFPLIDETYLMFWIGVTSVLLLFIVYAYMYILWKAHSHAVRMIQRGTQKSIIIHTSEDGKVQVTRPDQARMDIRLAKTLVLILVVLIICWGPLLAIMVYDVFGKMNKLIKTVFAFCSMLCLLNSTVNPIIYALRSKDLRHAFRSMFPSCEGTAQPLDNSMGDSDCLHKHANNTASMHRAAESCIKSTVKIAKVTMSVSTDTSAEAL

Structure (SMILES): Cc1c(C(=O)NN2CCCCC2)nn(-c2ccc(Cl)cc2Cl)c1-c1ccc(Cl)cc1 [Rimonabant, reference compound]
- inducing CB1R-mediated hyperactivity (activity profile) [1]: induced a marked increase in the activity profile

Structure (SMILES): CC(C)C(NC(=O)c1ccco1)C(=O)NCC(c1ccccc1Cl)c1c[nH]c2ccccc12 (single isomer, unassigned) [Compound 4-SR]
- brain penetrance (brain levels vs serum levels) ([2]; mice, 10, 20, 50 mg/kg ip): markedly reduced brain penetrance
- Ki ([3]; separated isomer SR, read-out: Ki (μM) SR): 0.48 µM

Structure (SMILES): CC(C)C(NC(=O)c1ccco1)C(=O)NCC(c1ccccc1Cl)c1c[nH]c2ccccc12 (centres unmarked) [Compound 4]
- activity (agonism, antagonism, inverse agonism) properties [4]: neutral antagonism; also recorded: antagonist
- Ki [3, 5]: 1.1 µM
- Ki [3, 6]: 1 µM

Structure (SMILES): CC1=C(C(=O)Nc2ccccc2C(F)(F)F)C(c2cccc(Oc3ccccc3)c2)NC(=S)N1 (centres unmarked) [Compound 2]
- activity (agonism, antagonism, inverse agonism) properties [4]: inverse agonists
- Ki [3, 5]: 2.1 µM
- Ki [3, 6]: 3.36 µM

Structure (SMILES): Cc1ccc(NC(=S)Nc2ccc(C(C)C)cc2)c(S(=O)(=O)Nc2ccc(Cl)cc2)c1 [Compound 12]
- activity (agonism, antagonism, inverse agonism) properties [4]: inverse agonists
- Ki [3, 5]: 3.4 µM

Structure (SMILES): CC(=O)c1cccc(S(=O)(=O)NCCC(=O)NCC(c2ccccc2Cl)c2c[nH]c3ccccc23)c1 (single isomer, unassigned) [Compound 3-R]
- Ki [3, 7]: 1.3 µM

Structure (SMILES): Cc1ccc(C(=O)C2SC(Nc3ccc(Cl)cc3)=C(C(=O)Nc3ccc(Cl)cc3)C2=N)cc1 (centres unmarked) [Compound 11]
- activity (agonism, antagonism, inverse agonism) properties [4]: inverse agonists
- Ki [3, 5]: 1.3 µM

Structure (SMILES): CC(NC(=O)Nc1ccccc1)C(=O)NCC(c1ccccc1Cl)c1c[nH]c2ccccc12 (centres unmarked) [Compound 7]
- Ki [3, 5]: 3.9 µM

Structure (SMILES): CC(C)C(NC(=O)c1ccco1)C(=O)NCC(c1ccccc1Cl)c1c[nH]c2ccccc12 (single isomer, unassigned) [Compound 4-RR]
- brain penetrance (brain levels vs serum levels) ([2]; mice, 10, 20, 50 mg/kg ip): markedly reduced brain penetrance
- Ki ([3]; separated isomer RR, read-out: Ki (μM) RR): 0.54 µM

Structure (SMILES): CC(C)C(NC(=O)c1ccco1)C(=O)NCC(c1ccccc1Cl)c1c[nH]c2ccccc12 (single isomer, unassigned) [Compound 4-SS]
- Ki ([3]; separated isomer SS, read-out: Ki (μM) SS): 1.66 µM

Structure (SMILES): CC1=C(C(=O)Nc2ccccc2C(F)(F)F)C(c2ccc(OCc3ccccc3)cc2)NC(=S)N1 (centres unmarked) [Compound 8]
- activity (agonism, antagonism, inverse agonism) properties [4]: inverse agonists
- brain penetrance (brain levels vs serum levels) ([2]; mice, 3, 10 and 30 mg/kg ip): markedly reduced brain penetrance
- Ki [3, 5]: 0.408 µM
- Ki [3, 8]: ~0.4 µM
- Ki [3, 6]: 0.346 µM

Structure (SMILES): CC(=O)Nc1ccc(C)c(S(=O)(=O)NCC(c2ccccc2Cl)c2c[nH]c3ccccc23)c1 (centres unmarked) [Compound 13]
- Ki [3, 5]: 6.5 µM

Structure (SMILES): CC(=O)NC(CC(=O)NCC(c1ccccc1Cl)c1c[nH]c2ccccc12)c1ccc(C)cc1 (centres unmarked) [Compound 14]
- activity (agonism, antagonism, inverse agonism) properties [4]: inverse agonists
- Ki [3, 5]: 0.938 µM
- Ki [3, 6]: 1.2 µM

Structure (SMILES): CC1=C(C(=O)Nc2ccccc2C(F)(F)F)C(c2cccc(Oc3ccccc3)c2)NC(=S)N1 (single isomer, unassigned) [Compound 2-R]
- Ki [3, 7]: 4 µM

Structure (SMILES): N#Cc1ccc(CC(C#N)(Cc2ccc(C#N)cc2)c2nc(-c3ccc(Cl)c(Cl)c3)cs2)cc1 [Compound 10]
- activity (agonism, antagonism, inverse agonism) properties [4]: positive allosteric modulator (PAM)
- Ki [3, 5]: 0.414 µM
- Ki [3, 8]: ~0.4 µM

Structure (SMILES): CC(=O)c1cccc(S(=O)(=O)NCCC(=O)NCC(c2ccccc2Cl)c2c[nH]c3ccccc23)c1 (centres unmarked) [Compound 3]
- Ki [3, 5]: 1.8 µM
- Ki [3, 6]: 1.1 µM

Structure (SMILES): CC(C)C(NC(=O)c1ccco1)C(=O)NCC(c1ccccc1Cl)c1c[nH]c2ccccc12 (single isomer, unassigned) [Compound 4-RS]
- Ki ([3]; separated isomer RS, read-out: Ki (μM) RS): 8.46 µM

Structure (SMILES): CC1=C(C(=O)Nc2ccccc2C(F)(F)F)C(c2cccc(Oc3ccccc3)c2)NC(=S)N1 (single isomer, unassigned) [Compound 2-S]
- Ki ([3]; separated isomer S, read-out: Ki (μM) S): 6.33 µM
